Holding throughout (format): biochemical
The target of one assay is T1, DYRK2 (Homo sapiens, UniProt Q92630).
T1 construct: purchased Carna Biosciences, Inc. 04-132
T1 sequence (Q92630 1-601): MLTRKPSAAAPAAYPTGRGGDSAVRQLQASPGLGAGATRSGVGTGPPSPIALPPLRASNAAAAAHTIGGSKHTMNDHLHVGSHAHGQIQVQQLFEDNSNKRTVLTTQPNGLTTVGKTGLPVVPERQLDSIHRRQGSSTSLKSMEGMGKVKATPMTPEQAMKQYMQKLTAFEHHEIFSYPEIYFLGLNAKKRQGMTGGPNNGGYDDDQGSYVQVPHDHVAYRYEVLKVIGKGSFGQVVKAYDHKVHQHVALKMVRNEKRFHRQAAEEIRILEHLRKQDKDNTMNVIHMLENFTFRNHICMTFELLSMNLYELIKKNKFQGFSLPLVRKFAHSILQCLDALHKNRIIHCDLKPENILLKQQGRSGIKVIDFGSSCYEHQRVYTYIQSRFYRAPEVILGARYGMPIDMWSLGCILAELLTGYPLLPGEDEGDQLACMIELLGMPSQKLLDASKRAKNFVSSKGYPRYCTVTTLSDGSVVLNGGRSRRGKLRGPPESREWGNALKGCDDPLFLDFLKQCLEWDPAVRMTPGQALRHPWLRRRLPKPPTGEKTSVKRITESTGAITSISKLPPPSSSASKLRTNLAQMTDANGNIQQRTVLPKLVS
Kind of assay: Inhibition test on activity of DYRK family, mobility shift assay (MSA), DYRK2. To be noted: ATP 40 μM, FITC-labeled DYRKtide peptide substrate, room temperature 1 hour; for IC50: read-out: Inhibitory Activity 2 (IC50 against DYRK2). Summed up:
(§1)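 FITC-DYRKtide phosphorylation in 20 mM HEPES pH 7.5 with MgCl2; ATP in the substrate mix was 100 μM (DYRK1A), 200 μM (DYRK1B), 40 μM (DYRK2) or 20 μM (DYRK3). Reactions ran 1 h at room temperature; inhibition from P/(P+S) versus blank and DMSO control, IC50 by regression on log concentration.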

In the next assay the target is T2, DYRK3 (Homo sapiens, UniProt O43781).
T2 construct: purchased Carna Biosciences, Inc. 04-133
T2 sequence (O43781 1-588): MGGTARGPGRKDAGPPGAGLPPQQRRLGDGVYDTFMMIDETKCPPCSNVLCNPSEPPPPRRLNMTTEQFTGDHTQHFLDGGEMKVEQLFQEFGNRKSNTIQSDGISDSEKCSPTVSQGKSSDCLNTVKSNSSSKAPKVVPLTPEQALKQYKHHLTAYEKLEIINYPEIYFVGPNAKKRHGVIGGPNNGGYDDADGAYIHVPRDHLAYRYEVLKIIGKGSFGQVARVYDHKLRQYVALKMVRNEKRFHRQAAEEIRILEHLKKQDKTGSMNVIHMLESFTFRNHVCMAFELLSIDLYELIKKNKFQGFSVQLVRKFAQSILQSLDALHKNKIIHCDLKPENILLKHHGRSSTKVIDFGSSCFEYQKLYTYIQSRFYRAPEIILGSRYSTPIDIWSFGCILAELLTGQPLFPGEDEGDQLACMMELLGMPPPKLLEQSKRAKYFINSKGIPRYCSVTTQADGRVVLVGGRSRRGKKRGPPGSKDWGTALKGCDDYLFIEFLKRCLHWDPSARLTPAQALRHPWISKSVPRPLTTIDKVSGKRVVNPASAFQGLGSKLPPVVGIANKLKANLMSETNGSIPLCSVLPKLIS
The assay can be described thus: Inhibition test on activity of DYRK family, mobility shift assay (MSA), DYRK3. To be noted: ATP 20 μM, FITC-labeled DYRKtide peptide substrate, room temperature 1 hour; read-out: Inhibitory Activity 3 (IC50 against DYRK3). Summed up:
as §1

The target in another assay is T3, DYRK1A (Homo sapiens, UniProt Q13627).
T3 construct: purchased Carna Biosciences, Inc. 04-130
Kind of assay: Inhibition test on activity of DYRK family, mobility shift assay (MSA), DYRK1A. To be noted: ATP 100 μM, FITC-labeled DYRKtide peptide substrate, room temperature 1 hour; for IC50: read-out: Inhibitory Activity 1a (IC50 against DYRK1A). Summed up:
as §1

For `CC#C[C@H]1[C@H](CO)NC(=O)N1c1nc2c3c(ccc2s1)OCCO3` (single isomer, unassigned) [Example 65, trans-1-(7,8-dihydro-[1,4]dioxino[2′,3′:5,6]benz[1,2-d]thiazol-2-yl)-4-(hydroxymethyl)-5-(prop-1-yn-1-yl)imidazolidin-2-one], the IC50 at DYRK2 and at DYRK3 was 100 to 1000 nM each time. Moreover, at DYRK1A, the “Inhibitory Activity 1a (IC50 against DYRK1A)” value (from here on “Inhibitory Activity 1a”) is reported as “* * *”.
For the compound `CC#C[C@H]1[C@H](CO)NC(=O)N1c1nc2c3c(ccc2s1)OCCO3` (single isomer, unassigned) [Example 66, trans-1-(7,8-dihydro-[1,4]dioxino[2′,3′:5,6]benz[1,2-d]thiazol-2-yl)-4-(hydroxymethyl)-5-(prop-1-yn-1-yl)imidazolidin-2-one], the results for the IC50 at DYRK2, at DYRK3 and on DYRK1A were at least 1000 nM, at least 1000 nM and 100 to 1000 nM, respectively.
For the compound `CC#C[C@H]1[C@H](CN(C)C)NC(=O)N1c1nc2c3c(ccc2s1)OCC3` (single isomer, unassigned) [Example 69, trans-1-(7,8-dihydrobenzofuro[4,5-d]thiazol-2-yl)-4-[(dimethylamino)methyl]-5-(prop-1-yn-1-yl)imidazolidin-2-one], the figures for the IC50 on DYRK2 and on DYRK3 were at least 1000 nM and 100 to 1000 nM, respectively. At DYRK1A, the “Inhibitory Activity 1a” value is on record as “* *”.
With `CC#C[C@H]1[C@H](CN(C)C)NC(=O)N1c1nc2c3c(ccc2s1)OCC3` (single isomer, unassigned) [Example 70, trans-1-(7,8-dihydrobenzofuro[4,5-d]thiazol-2-yl)-4-[(dimethylamino)methyl]-5-(prop-1-yn-1-yl)imidazolidin-2-one], the half-inhibitory concentration (IC50) is at least 1000 nM on DYRK2, at least 1000 nM at DYRK3 and 100 to 1000 nM on DYRK1A.
As to `CC#C[C@H]1[C@H](CC)NC(=O)N1c1nc2c3c(ccc2s1)OCC3` (single isomer, unassigned) [Example 71, trans-1-(7,8-dihydrobenzofuro[4,5-d]thiazol-2-yl)-4-ethyl-5-(prop-1-yn-1-yl)imidazolidin-2-one], the IC50 on DYRK2 was at least 1000 nM; at DYRK3, 100 to 1000 nM. For the same compound, the “Inhibitory Activity 1a” value on DYRK1A is given as “* * *”.
On to `CC#C[C@H]1[C@H](CC)NC(=O)N1c1nc2c3c(ccc2s1)OCC3` (single isomer, unassigned) [Example 72, trans-1-(7,8-dihydrobenzofuro[4,5-d]thiazol-2-yl)-4-ethyl-5-(prop-1-yn-1-yl)imidazolidin-2-one], for which the IC50 on DYRK2 was at least 1000 nM; on DYRK3, at least 1000 nM; on DYRK1A, 100 to 1000 nM.
With `CC#C[C@@H]1[C@H](COC)NC(=O)N1c1nc2c3c(ccc2s1)OCC3` (single isomer, unassigned) [Example 74, cis-1-(7,8-dihydrobenzofuro[4,5-d]thiazol-2-yl)-4-(methoxymethyl)-5-(prop-1-yn-1-yl)imidazolidin-2-one], the IC50 on DYRK2 and at DYRK3 was 100 to 1000 nM in each case. In addition, the “Inhibitory Activity 1a” value on DYRK1A is reported as “* * *”.
Turning to `CC#C[C@@H]1[C@H](COC)NC(=O)N1c1nc2c3c(ccc2s1)OCC3` (single isomer, unassigned) [Example 75, cis-1-(7,8-dihydrobenzofuro[4,5-d]thiazol-2-yl)-4-(methoxymethyl)-5-(prop-1-yn-1-yl)imidazolidin-2-one], the IC50 on DYRK2 was at least 1000 nM; at DYRK3 it was at least 1000 nM; on DYRK1A, 100 to 1000 nM.
On to `CC#C[C@H]1[C@H](COC)NC(=O)N1c1nc2c3c(ccc2s1)OCC3` (single isomer, unassigned) [Example 76, trans-1-(7,8-dihydrobenzofuro[4,5-d]thiazol-2-yl)-4-(methoxymethyl)-5-(prop-1-yn-1-yl)imidazolidin-2-one], for which the IC50 on DYRK2 and on DYRK3 was at least 1000 nM throughout. Moreover, at DYRK1A, the “Inhibitory Activity 1a” value is reported as “* *”.
With `CC#C[C@H]1[C@H](COC)NC(=O)N1c1nc2c3c(ccc2s1)OCC3` (single isomer, unassigned) [Example 77, trans-1-(7,8-dihydrobenzofuro[4,5-d]thiazol-2-yl)-4-(methoxymethyl)-5-(prop-1-yn-1-yl)imidazolidin-2-one], the IC50 on DYRK2 and on DYRK3 was at least 1000 nM each time. Besides, on DYRK1A, the “Inhibitory Activity 1a” value is given as “* *”.
With `CC#C[C@H]1[C@H](CF)NC(=O)N1c1nc2c3c(ccc2s1)OCC3` (single isomer, unassigned) [Example 78, trans-1-(7,8-dihydrobenzofuro[4,5-d]thiazol-2-yl)-4-(fluoromethyl)-5-(prop-1-yn-1-yl)imidazolidin-2-one], the “Inhibitory Activity 2 (IC50 against DYRK2)” value at DYRK2 was “* *”. The IC50 at DYRK3 is 100 to 1000 nM; at DYRK1A, under 10 nM.
Turning to `CC#C[C@H]1[C@H](CF)NC(=O)N1c1nc2c3c(ccc2s1)OCC3` (single isomer, unassigned) [Example 79, trans-1-(7,8-dihydrobenzofuro[4,5-d]thiazol-2-yl)-4-(fluoromethyl)-5-(prop-1-yn-1-yl)imidazolidin-2-one], the values for the IC50 at DYRK2, at DYRK3 and on DYRK1A were at least 1000 nM, at least 1000 nM and 100 to 1000 nM, respectively.
For `CC#C[C@H]1[C@H](C)NC(=O)N1c1nc2c3c(ccc2s1)OCC3` [Example 4, (4S,5S)-1-(7,8-dihydrobenzofuro[4,5-d]thiazol-2-yl)-4-methyl-5-(prop-1-yn-1-yl)imidazolidin-2-one], the IC50 on DYRK2, on DYRK3 and at DYRK1A was at least 1000 nM in each case.
On to `CC#C[C@@H]1[C@@H](C)NC(=O)N1c1nc2c3c(ccc2s1)OCC3` [Example 16, (4R,5R)-1-(7,8-dihydrobenzofuro[4,5-d]thiazol-2-yl)-4-methyl-5-(prop-1-yn-1-yl)imidazolidin-2-one], for which the results for the IC50 at DYRK2 and at DYRK3 were at least 1000 nM and 100 to 1000 nM, respectively. Further, the “Inhibitory Activity 1a” value at DYRK1A is on record as “* * *”.
As to `CC#C[C@H]1[C@@H](C)NC(=O)N1c1nc2c3c(ccc2s1)OCC3` [Example 17, (4R,5S)-1-(7,8-dihydrobenzofuro[4,5-d]thiazol-2-yl)-4-methyl-5-(prop-1-yn-1-yl)imidazolidin-2-one], the IC50 at DYRK2 is at least 1000 nM; on DYRK3 it was at least 1000 nM; on DYRK1A, 100 to 1000 nM.
As for `CC#C[C@@H]1[C@H](C)NC(=O)N1c1nc2c3c(ccc2s1)OCO3` [Example 23, (4S,5R)-1-([1,3]dioxolo[4′,5′:5,6]benzo[1,2-d]thiazol-7-yl)-4-methyl-5-(prop-1-yn-1-yl)imidazolidin-2-one], the 50% inhibitory concentration (IC50) at DYRK2 and at DYRK3 was 100 to 1000 nM each time. The “Inhibitory Activity 1a” value on DYRK1A is listed as “* * *”.
For `CC#C[C@@H]1[C@H](C)NC(=O)N1c1nc2c3c(ccc2s1)OCCO3` [Example 56, (4S,5R)-1-(7,8-dihydro-[1,4]dioxino[2′,3′:5,6]benz[1,2-d]thiazol-2-yl)-4-methyl-5-(prop-1-yn-1-yl)imidazolidin-2-one], the IC50 at DYRK2 and on DYRK3 was 100 to 1000 nM each time. Also, the “Inhibitory Activity 1a” value at DYRK1A is reported as “* * *”.
For the compound `CC#C[C@@H]1[C@H](C)NC(=O)N1c1nc2c3c(ccc2s1)OCCC3` [Example 57, (4S,5R)-1-(8,9-dihydro-7H-chromeno[5,6-d]thiazol-2-yl)-4-methyl-5-(prop-1-yn-1-yl)imidazolidin-2-one], the IC50 on DYRK2 and at DYRK3 was 100 to 1000 nM in each case. For the same compound, the “Inhibitory Activity 1a” value at DYRK1A is “* * *”.

By IC50 is commonly meant the concentration that gives 50% inhibition.

Values taken from patent publication US20230138851A1, “NOVEL ALKYNE DERIVATIVES” (CARNA BIOSCIENCES, INC., priority 2020, published 2023).
